Assay: xn = mol fraction of the nth substance listed
Conditions: Liquid, Vibrating tube method

CC(C)CCl [1-chloro-2-methylpropane] + CCCCCCC
mass density [kg/m3]
Conditions | 293.15 K | 298.15 K
100 kPa, x2 = 0.0531 | – | 857.37
100 kPa, x2 = 0.1023 | – | 844.58
100 kPa, x2 = 0.2009 | – | 820.42
100 kPa, x2 = 0.3009 | – | 797.89
100 kPa, x2 = 0.3981 | – | 777.63
100 kPa, x2 = 0.4986 | – | 758.2
100 kPa, x2 = 0.5998 | – | 740.04
100 kPa, x2 = 0.7038 | – | 722.73
100 kPa, x2 = 0.7993 | – | 707.93
100 kPa, x2 = 0.8995 | – | 693.43
100 kPa, x2 = 0.9507 | – | 686.38
2000 kPa, x2 = 0.0531 | – | 859.45
2000 kPa, x2 = 0.1023 | – | 846.69
2000 kPa, x2 = 0.2009 | – | 822.61
2000 kPa, x2 = 0.3009 | – | 800.07
2000 kPa, x2 = 0.3981 | – | 779.77
2000 kPa, x2 = 0.4986 | – | 760.3
2000 kPa, x2 = 0.5998 | – | 742.16
2000 kPa, x2 = 0.7038 | – | 724.79
2000 kPa, x2 = 0.7993 | – | 709.96
2000 kPa, x2 = 0.8995 | – | 695.5
2000 kPa, x2 = 0.9507 | – | 688.51
5000 kPa, x2 = 0.0531 | – | 862.78
5000 kPa, x2 = 0.1023 | – | 849.99
5000 kPa, x2 = 0.2009 | – | 825.85
5000 kPa, x2 = 0.3009 | – | 803.24
5000 kPa, x2 = 0.3981 | – | 782.87
5000 kPa, x2 = 0.4986 | – | 763.35
5000 kPa, x2 = 0.5998 | – | 745.14
5000 kPa, x2 = 0.7038 | – | 727.73
5000 kPa, x2 = 0.7993 | – | 712.83
5000 kPa, x2 = 0.8995 | – | 698.32
5000 kPa, x2 = 0.9507 | – | 691.31
7000 kPa, x2 = 0.0531 | – | 864.94
7000 kPa, x2 = 0.1023 | – | 852.13
7000 kPa, x2 = 0.2009 | – | 827.95
7000 kPa, x2 = 0.3009 | – | 805.31
7000 kPa, x2 = 0.3981 | – | 784.94
7000 kPa, x2 = 0.4986 | – | 765.38
7000 kPa, x2 = 0.5998 | – | 747.13
7000 kPa, x2 = 0.7038 | – | 729.69
7000 kPa, x2 = 0.7993 | – | 714.76
7000 kPa, x2 = 0.8995 | – | 700.23
7000 kPa, x2 = 0.9507 | – | 693.2
10000 kPa, x2 = 0.0531 | – | 868.11
10000 kPa, x2 = 0.1023 | – | 855.26
10000 kPa, x2 = 0.2009 | – | 831
10000 kPa, x2 = 0.3009 | – | 808.29
10000 kPa, x2 = 0.3981 | – | 787.84
10000 kPa, x2 = 0.4986 | – | 768.21
10000 kPa, x2 = 0.5998 | – | 749.91
10000 kPa, x2 = 0.7038 | – | 732.42
10000 kPa, x2 = 0.7993 | – | 717.45
10000 kPa, x2 = 0.8995 | – | 702.88
10000 kPa, x2 = 0.9507 | – | 695.78
20000 kPa, x2 = 0.0531 | – | 877.88
20000 kPa, x2 = 0.1023 | – | 865.08
20000 kPa, x2 = 0.2009 | – | 840.5
20000 kPa, x2 = 0.3009 | – | 817.71
20000 kPa, x2 = 0.3981 | – | 797.11
20000 kPa, x2 = 0.4986 | 781.73 | 777.37
20000 kPa, x2 = 0.5998 | 763.14 | 758.88
20000 kPa, x2 = 0.7038 | 745.41 | 741.28
20000 kPa, x2 = 0.7993 | 730.25 | 726.13
20000 kPa, x2 = 0.8995 | 715.39 | 711.41
20000 kPa, x2 = 0.9507 | 708.22 | 704.25
30000 kPa, x2 = 0.0531 | 891.52 | 886.78
30000 kPa, x2 = 0.1023 | 878.34 | 873.9
30000 kPa, x2 = 0.2009 | 853.68 | 849.18
30000 kPa, x2 = 0.3009 | 830.55 | 826.21
30000 kPa, x2 = 0.3981 | 809.73 | 805.55
30000 kPa, x2 = 0.4986 | 789.74 | 785.57
30000 kPa, x2 = 0.5998 | 771.06 | 766.94
30000 kPa, x2 = 0.7038 | 753.18 | 749.15
30000 kPa, x2 = 0.7993 | 737.88 | 733.94
30000 kPa, x2 = 0.8995 | 722.93 | 719.07
30000 kPa, x2 = 0.9507 | 715.7 | 711.84
40000 kPa, x2 = 0.0531 | 899.47 | 895.02
40000 kPa, x2 = 0.1023 | 886.28 | 882.04
40000 kPa, x2 = 0.2009 | 861.43 | 857.18
40000 kPa, x2 = 0.3009 | 838.11 | 834.09
40000 kPa, x2 = 0.3981 | 817.16 | 813.22
40000 kPa, x2 = 0.4986 | 797.04 | 793.13
40000 kPa, x2 = 0.5998 | 778.18 | 774.36
40000 kPa, x2 = 0.7038 | 760.15 | 756.46
40000 kPa, x2 = 0.7993 | 744.84 | 741.11
40000 kPa, x2 = 0.8995 | 729.76 | 726.12
40000 kPa, x2 = 0.9507 | 722.48 | 718.83
50000 kPa, x2 = 0.0531 | 906.83 | 902.53
50000 kPa, x2 = 0.1023 | 893.73 | 889.53
50000 kPa, x2 = 0.2009 | 868.58 | 864.58
50000 kPa, x2 = 0.3009 | 845.22 | 841.36
50000 kPa, x2 = 0.3981 | 824.17 | 820.34
50000 kPa, x2 = 0.4986 | 803.9 | 800.16
50000 kPa, x2 = 0.5998 | 784.93 | 781.27
50000 kPa, x2 = 0.7038 | 766.85 | 763.24
50000 kPa, x2 = 0.7993 | 751.39 | 747.78
50000 kPa, x2 = 0.8995 | 736.21 | 732.67
50000 kPa, x2 = 0.9507 | 728.86 | 725.32
60000 kPa, x2 = 0.0531 | 913.81 | 909.64
60000 kPa, x2 = 0.1023 | 900.5 | 896.54
60000 kPa, x2 = 0.2009 | 875.39 | 871.48
60000 kPa, x2 = 0.3009 | 851.83 | 848.21
60000 kPa, x2 = 0.3981 | 830.75 | 827.13
60000 kPa, x2 = 0.4986 | 810.36 | 806.82
60000 kPa, x2 = 0.5998 | 791.29 | 787.83
60000 kPa, x2 = 0.7038 | 773.13 | 769.72
60000 kPa, x2 = 0.7993 | 757.58 | 754.16
60000 kPa, x2 = 0.8995 | 742.31 | 738.97
60000 kPa, x2 = 0.9507 | 734.9 | 731.55
65000 kPa, x2 = 0.0531 | 917.1 | 913.06
65000 kPa, x2 = 0.1023 | 903.79 | 899.93
65000 kPa, x2 = 0.2009 | 878.75 | 874.82
65000 kPa, x2 = 0.3009 | 855.14 | 851.5
65000 kPa, x2 = 0.3981 | 833.84 | 830.36
65000 kPa, x2 = 0.4986 | 813.47 | 810
65000 kPa, x2 = 0.5998 | 794.31 | 790.97
65000 kPa, x2 = 0.7038 | 775.99 | 772.79
65000 kPa, x2 = 0.7993 | 760.39 | 757.19
65000 kPa, x2 = 0.8995 | 745.06 | 741.93
65000 kPa, x2 = 0.9507 | 737.63 | 734.52
